Results published in a compilation of properties of binary mixtures (doi:10.1016/j.jct.2016.09.024).

Test: xn = mol fraction of the nth substance listed
Details: 100 kPa

CCO + CCCC[N+](C)(C)C.O=S(=O)([N-]S(=O)(=O)C(F)(F)F)C(F)(F)F
x1 = 1
Details	speed of sound [m/s]
293.15 K	1160.4
308.15 K	1108.9

CCCC[N+](C)(CCCC)CCCC.O=S(=O)([N-]S(=O)(=O)C(F)(F)F)C(F)(F)F + CCO
speed of sound [m/s]
Details	293.15 K	298.15 K	303.15 K	308.15 K
x1 = 0.0149	–	1146.8	1130.4	1114.1
x2 = 0	1291.7	1276	1261.1	–
x2 = 0.0636	–	1271.9	1257.5	1244.1
x2 = 0.0711	1285.8	1272.2	–	1244.1
x2 = 0.1235	–	1268.1	1254.2	–
x2 = 0.2012	1277.4	1263.2	1249.4	1236.2
x2 = 0.3995	1262.3	–	1235.2	1221.9
x2 = 0.6009	1241.4	1227.8	1214.4	1200.8
x2 = 0.7187	1224.1	1210.4	1196.3	1182.7
x2 = 0.8118	1205.7	1192	–	1163.3
x2 = 0.8605	1194.3	–	–	1151.2
x2 = 0.9076	1181.8	1166.7	1151.6	1136.7
x2 = 0.93	1175.6	1160.2	–	1129.9
x2 = 0.95	1170.7	–	–	1123.5
x2 = 0.96	–	1152.3	–	1120.9
x2 = 0.9702	1165.7	–	1133.6	–

CCCC[N+](C)(C)C.O=S(=O)([N-]S(=O)(=O)C(F)(F)F)C(F)(F)F + CCO
speed of sound [m/s]
Details	293.15 K	298.15 K	303.15 K	308.15 K
x1 = 0.01	1160.4	–	1126.8	1110.1
x2 = 0	1239.5	1228.9	1218.3	1208.1
x2 = 0.0605	1237.5	1226.8	1216.1	1205.9
x2 = 0.101	1235.4	1224.6	1214	–
x2 = 0.1991	–	1220.2	1209.5	1199
x2 = 0.3	1225.3	1214.6	–	1193.1
x2 = 0.4096	1218.1	1206.9	1195.8	1185
x2 = 0.4998	1210.5	1199.2	1187.9	–
x2 = 0.5996	1200.8	1189.1	–	1166.4
x2 = 0.6504	1195.1	1183.1	–	1159.6
x2 = 0.7501	–	1169.2	1156.6	1144.4
x2 = 0.8514	1166.7	1152.8	–	1126.2
x2 = 0.88	1163.4	–	1134.6	1117
x2 = 0.92	1158.1	1143.6	1129.8	1114.5
x2 = 0.93	1158	1142.8	1128	1113.2
x2 = 0.94	1157.5	1142.1	1127	1112.2
x2 = 0.9609	1157.2	1141.7	1126	1110.5
x2 = 0.97	–	1142.1	–	1110.4
x2 = 0.98	–	1142.2	1125.9	1109.9

CCO + CCCC[N+](C)(CCCC)CCCC.O=S(=O)([N-]S(=O)(=O)C(F)(F)F)C(F)(F)F
x1 = 1
Details	speed of sound [m/s]
293.15 K	1160.4
298.15 K	1143.3
303.15 K	1126.1

CCO + C[N+](C)(C)CCO.O=S(=O)([N-]S(=O)(=O)C(F)(F)F)C(F)(F)F
x1 = 1
Details	speed of sound [m/s]
303.15 K	1126.1
308.15 K	1108.9

C[N+](C)(C)CCO.O=S(=O)([N-]S(=O)(=O)C(F)(F)F)C(F)(F)F + CCO
speed of sound [m/s]
Details	293.15 K	298.15 K	303.15 K	308.15 K
x2 = 0.7051	1221.8	1207.6	1195.3	1183.5
x2 = 0.801	–	1183.2	1170	1157.2
x2 = 0.9002	1172.1	1156.6	1142.5	1128.2
x2 = 0.9601	1162.4	1145.9	1130.3	1115
